In patent US20130028937A1 (LABORATORIOS DEL DR. ESTEVE, S.A., priority 2009, published 2013):

Tests used:
[1] = system: incision-induced mechanical allodynia in the rat hind paw; test: Mechanical allodynia (von Frey filaments) in postoperative pain model after paw incision; type: in vivo; settings: for efficacy on mechanical allodynia (in words): dose-response curve
Experimental: Following plantar incision, rats show decreases in response thresholds graded von Frey filaments (mechanical hypersensitivity) (Brennan et al., Pain 1996, 64, 493).
Male, Wistar rats (120-160 g, Harlan, Italy) were housed in a climate-controlled room for at least 5 days prior to testing. Food and water were available ad libitum up to test time.
The dosing volume was 10 ml/kg. The antiallodynic response of the animal was subsequently evaluated 60 min after drug administration.
Rats were anaesthetized with 3% isofluorane for veterinary use, employing an Ohmeda vaporizer and an anaesthesia chamber. Anaesthesia was kept during the surgical operation by a tube which directs the isoflurane vapours to the animal's snout. Once the rats were anaesthetised, they were laid down in a prone position and their right hindpaws were cleaned out with alcohol. Then, a 1 cm longitudinal incision was made with a number 23 scalpel, through skin and fascia of the plantar aspect of the paw, starting 0.5 cm from the proximal edge of the heel and extending toward the toes. Therefore, both superficial (skin) and deep (muscle) tissues and nerves were injured. Finally, the skin of the paw was stitched with a suturing stitch with breaded silk (3.0) and the wound was cleaned out with povidone.
The drugs were tested 4 hours after the surgery (plantar incision); 60 minutes after the administration of the product, one behavioural endpoint was evaluated: mechanical hypersensitivity or allodynia.
Mechanical allodynia was tested using von Frey filaments. Animals were placed in methacrylate cylinders on an elevated surface, with metallic mesh floor perforated in order to apply the filaments. After an acclimation period of about 30 minutes within the cylinders, both hindpaws were stimulated (the injured and the non-injured paw, serving the latter as control), starting with the lowest force filament (0.4 g) and reaching up to a 15 g filament. The animal's response to pain was manifested by the withdrawal of the paw as a consequence of the painful stimulus caused by a filament. The pressure (force in grams) threshold eliciting the withdrawal of the paw was recorded.
The method is based on the comparison of the effect of several doses of the combination at a determined ratio with respect to the effects achieved using different doses of each of the two agents. […] Where it is established that Zt<Zadd for a specific fixed-ratio, then that composition has a synergistic effect. The theoretical additive dose (Zadd) for the co-crystal was then calculated and compared with the experimental ED50 of the combination (Zt) as described in Tallarida, Drug synergism 2001, 298, 865-872 [10].

[2] = system: locomotor activity in mice; test: Locomotor activity in actimeter cages; settings: CD-1 mice, 30 min after administration
Experimental: Male, CD-1 mice (14-18 g, Charles River) were housed in a climate-controlled room for at least 5 days prior to testing. Food and water were available ad libitum up to test time.
The dosing volume was 10 ml/kg.
Eight standard actimeter cages (Linton Instrumentation, Inc.) equipped with infrared beams for the detection of movement were used. After administering the compounds, the animals were returned to their homecages and then placed in the locomotor activity cages 30 min later. Moving time was measured during 30 min, with readings performed every 5 min.

[3] = Wistar rats, intraperitoneal, 4 hours after plantar incision, 60 min after administration

SMILES | inhibition of mechanical allodynia compared with each single drug at equivalent doses ([1]; Wistar rats, intraperitoneal, 60 min after administration) | efficacy on mechanical allodynia (in words) [1, 3] | isobolographic analysis of interaction (Zt vs Zadd) ([1]; molar ratio 1:1, experimental ED50 (Zt) vs theoretical Zadd, p>0.05 Student's t-test) | effect on locomotor activity (moving time) ([2]; intraperitoneal, 20, 40, 80 and 160 mg/kg, p>0.05) | maximum efficacy on mechanical allodynia ([1]; Wistar rats, intraperitoneal, 4 hours after plantar incision, 60 min after administration, ceiling effect) | effect on locomotor activity (moving time) ([2]; intraperitoneal, 80 mg/kg, p<0.001) | effect on locomotor activity (moving time) ([2]; intraperitoneal, doses lower than 80 mg/kg) | effect on locomotor activity (moving time) ([2]; intraperitoneal, 160 mg/kg, p<0.05 compared with vehicle) | effect on locomotor activity (moving time) ([2]; intraperitoneal, doses lower than 160 mg/kg)
COc1ccc(C(CN(C)C)C2(O)CCCCC2)cc1.Cc1ccc(-c2cc(C(F)(F)F)nn2-c2ccc(S(N)(=O)=O)cc2)cc1 (racemic) [Celecoxib—(rac)-venlafaxine co-crystal (1:1)] | superior benefit | full efficacy | additive interaction | did not show any significant side-effect | – | – | – | – | –
COc1ccc(C(CN(C)C)C2(O)CCCCC2)cc1 (racemic) [Venlafaxine, (rac)-1-[2-dimethylamino-1-(4-methoxyphenyl)-ethyl]cyclohexanol] | – | – | – | – | 58.40% | significant side-effects increasing | no statistically significant effects | – | –
Cc1ccc(-c2cc(C(F)(F)F)nn2-c2ccc(S(N)(=O)=O)cc2)cc1 [Celecoxib, 4-[5-(4-methylphenyl)-3-(trifluoromethyl)pyrazol-1-yl]benzenesulfonamide] | – | full efficacy | – | – | – | – | – | significant side-effects decreasing | No effects
